Broadly, the EC50 is the concentration that produces a half-maximal response.

The test addresses T1, olfactory receptor co-receptor (Orco) (Anopheles gambiae, UniProt Q7QCC7).
T1 construct: codon-optimized Orco cDNA in pPICZA (C-terminal c-myc tag detected), expressed in Pichia pastoris GS115
T1 sequence (Q7QCC7 1-478): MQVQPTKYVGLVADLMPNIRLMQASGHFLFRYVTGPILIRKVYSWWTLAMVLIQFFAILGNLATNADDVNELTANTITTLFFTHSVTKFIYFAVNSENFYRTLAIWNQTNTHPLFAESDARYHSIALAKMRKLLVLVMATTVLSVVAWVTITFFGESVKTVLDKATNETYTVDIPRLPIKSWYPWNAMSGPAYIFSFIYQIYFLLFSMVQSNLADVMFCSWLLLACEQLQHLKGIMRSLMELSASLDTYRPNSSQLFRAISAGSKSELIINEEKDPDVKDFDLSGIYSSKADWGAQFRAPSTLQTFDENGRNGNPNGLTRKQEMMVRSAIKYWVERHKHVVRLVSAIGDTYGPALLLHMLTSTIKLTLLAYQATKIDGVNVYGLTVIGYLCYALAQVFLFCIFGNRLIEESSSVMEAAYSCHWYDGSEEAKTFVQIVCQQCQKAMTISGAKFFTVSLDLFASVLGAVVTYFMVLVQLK
The experiment in a line: fluo-4-AM calcium influx assay in Pichia pastoris expressing Orco, compared with GS115 control cells ([…] extracellular Ca2+). Type of test: cell-based.

In the case of `CCc1ccc(NC(=O)CSc2nnc(-c3cccnc3)n2CC)cc1` [VUAA1, 2‐(4‐ethyl‐5‐(pyridin‐3‐yl)‐4H‐1,2,4‐triazol‐3‐ylthio)‐N‐(4‐ethylphenyl)acetamide], the concentration giving a half-maximal response (EC50) came out at 410 µM.

These data come from paper PMC7851572, “A Pichia biosensor for high‐throughput analyses of compounds that can influence mosquito behavior” (MicrobiologyOpen, 2020).
